Data: US12508261B2, “Methods of treating depression with vortioxetine” (Rundle Research LLC, priority 2017, dated 2025)

Tests used:
[1] = TRINTELLIX label; cited from earlier work
[2] = Regression model estimating vortioxetine half-life and MAOI delay from total body fat and steady-state plasma concentration (CYP2D6 metabolizer status); parameters: species or system human
From the text: Data obtained in the study described in Example 1 and Table 1 provided the basis for a regression model (having a r^2 value of 88%) based on total body fat and steady-state vortioxetine plasma concentration. Because the steady-state plasma concentration of vortioxetine correlates with metabolizer status, this regression provides a means of estimating vortioxetine half-life for patients based on total body fat and CYP2D6 metabolizer status.
Alternatively, the delay period can be calculated based on any particular values in Table 1, or any statistical parameter for characterizing the subject population of Table, such as the arithmetic mean, geometric mean, maximum, minimum, maximum or minimum 90% confidence interval, etc. of the half-life (e.g., 7.5×the average t1/2, 7.5×the maximum t1/2, and so forth, or the 21 day equivalency to a normal weight extensive metabolizer subject, based on the average t1/2 or the maximum t1/2 or any of the aforementioned statistically parameters).

[3] = Extensive(a) average of obese steady-state concentration for extensive metabolizers, total fat 60 kg
[4] = Extensive(a) average of obese steady-state concentration for extensive metabolizers, total fat 70 kg
[5] = Extensive(a) average of obese steady-state concentration for extensive metabolizers, total fat 80 kg
[6] = Extensive(a) average of obese steady-state concentration for extensive metabolizers, total fat 90 kg
[7] = Extensive(a) average of obese steady-state concentration for extensive metabolizers, total fat 100 kg
[8] = Extensive(b) high of extensive metabolizers, total fat 40 kg
[9] = Extensive(b) high of extensive metabolizers, total fat 50 kg
[10] = Extensive(b) high of extensive metabolizers, total fat 60 kg
[11] = Extensive(b) high of extensive metabolizers, total fat 70 kg
[12] = Extensive(b) high of extensive metabolizers, total fat 80 kg
[13] = Extensive(b) high of extensive metabolizers, total fat 90 kg
[14] = Extensive(b) high of extensive metabolizers, total fat 100 kg
[15] = IM(c) average of intermediate metabolizer values, total fat 10 kg
[16] = IM(c) average of intermediate metabolizer values, total fat 20 kg
[17] = IM(c) average of intermediate metabolizer values, total fat 30 kg
[18] = IM(c) average of intermediate metabolizer values, total fat 40 kg
[19] = IM(c) average of intermediate metabolizer values, total fat 50 kg
[20] = IM(c) average of intermediate metabolizer values, total fat 60 kg
[21] = IM(c) average of intermediate metabolizer values, total fat 70 kg
[22] = IM(c) average of intermediate metabolizer values, total fat 80 kg
[23] = IM(c) average of intermediate metabolizer values, total fat 90 kg
[24] = IM(c) average of intermediate metabolizer values, total fat 100 kg
[25] = IM(d) high of IM values, total fat 10 kg
[26] = IM(d) high of IM values, total fat 20 kg
[27] = IM(d) high of IM values, total fat 30 kg
[28] = IM(d) high of IM values, total fat 40 kg
[29] = IM(d) high of IM values, total fat 50 kg
[30] = IM(d) high of IM values, total fat 60 kg
[31] = IM(d) high of IM values, total fat 70 kg
[32] = IM(d) high of IM values, total fat 80 kg
[33] = IM(d) high of IM values, total fat 90 kg
[34] = IM(d) high of IM values, total fat 100 kg
[35] = PM(e) estimated poor metabolizer values, total fat 10 kg
[36] = PM(e) estimated poor metabolizer values, total fat 20 kg
[37] = PM(e) estimated poor metabolizer values, total fat 30 kg
[38] = PM(e) estimated poor metabolizer values, total fat 40 kg
[39] = PM(e) estimated poor metabolizer values, total fat 50 kg
[40] = PM(e) estimated poor metabolizer values, total fat 60 kg
[41] = PM(e) estimated poor metabolizer values, total fat 70 kg
[42] = PM(e) estimated poor metabolizer values, total fat 80 kg
[43] = PM(e) estimated poor metabolizer values, total fat 90 kg
[44] = PM(e) estimated poor metabolizer values, total fat 100 kg

- Half-Life Estimates ([2]; Extensive(a) average of obese steady-state concentration for extensive metabolizers, total fat 10 kg): 21 h
- Half-Life Estimates ([2]; Extensive(a) average of obese steady-state concentration for extensive metabolizers, total fat 20 kg): 32 h
- Half-Life Estimates ([2]; Extensive(a) average of obese steady-state concentration for extensive metabolizers, total fat 30 kg): 42 h
- Half-Life Estimates ([2]; Extensive(a) average of obese steady-state concentration for extensive metabolizers, total fat 40 kg): 52 h
- Half-Life Estimates ([2]; Extensive(a) average of obese steady-state concentration for extensive metabolizers, total fat 50 kg): 62 h
- Half-Life Estimates [2, 3]: 73 h
- Weeks of Delay (7.5 X half-life) [2, 3]: 3.2 Weeks
- Half-Life Estimates [2, 4]: 83 h
- Weeks of Delay (7.5 X half-life) [2, 4]: 3.7 Weeks
- Half-Life Estimates [2, 5]: 93 h
- Weeks of Delay (7.5 X half-life) [2, 5]: 4.2 Weeks
- Half-Life Estimates [2, 6]: 103 h
- Weeks of Delay (7.5 X half-life) [2, 6]: 4.6 Weeks
- Half-Life Estimates [2, 7]: 114 h
- Weeks of Delay (7.5 X half-life) [2, 7]: 5.1 Weeks
- Half-Life Estimates ([2]; Extensive(b) high of extensive metabolizers, total fat 10 kg): 39 h
- Half-Life Estimates ([2]; Extensive(b) high of extensive metabolizers, total fat 20 kg): 49 h
- Half-Life Estimates ([2]; Extensive(b) high of extensive metabolizers, total fat 30 kg): 59 h
- Half-Life Estimates [2, 8]: 70 h
- Weeks of Delay (7.5 X half-life) [2, 8]: 3.1 Weeks
- Half-Life Estimates [2, 9]: 80 h
- Weeks of Delay (7.5 X half-life) [2, 9]: 3.6 Weeks
- Half-Life Estimates [2, 10]: 90 h
- Weeks of Delay (7.5 X half-life) [2, 10]: 4.0 Weeks
- Half-Life Estimates [2, 11]: 100 h
- Weeks of Delay (7.5 X half-life) [2, 11]: 4.5 Weeks
- Half-Life Estimates [2, 12]: 111 h
- Weeks of Delay (7.5 X half-life) [2, 12]: 4.9 Weeks
- Half-Life Estimates [2, 13]: 121 h
- Weeks of Delay (7.5 X half-life) [2, 13]: 5.4 Weeks
- Half-Life Estimates [2, 14]: 131 h
- Weeks of Delay (7.5 X half-life) [2, 14]: 5.9 Weeks
- Half-Life Estimates [2, 15]: 102 h
- Weeks of Delay (7.5 X half-life) [2, 15]: 4.6 Weeks
- Half-Life Estimates [2, 16]: 112 h
- Weeks of Delay (7.5 X half-life) [2, 16]: 5.0 Weeks
- Half-Life Estimates [2, 17]: 123 h
- Weeks of Delay (7.5 X half-life) [2, 17]: 5.5 Weeks
- Half-Life Estimates [2, 18]: 133 h
- Weeks of Delay (7.5 X half-life) [2, 18]: 5.9 Weeks
- Half-Life Estimates [2, 19]: 143 h
- Weeks of Delay (7.5 X half-life) [2, 19]: 6.4 Weeks
- Half-Life Estimates [2, 20]: 153 h
- Weeks of Delay (7.5 X half-life) [2, 20]: 6.8 Weeks
- Half-Life Estimates [2, 21]: 164 h
- Weeks of Delay (7.5 X half-life) [2, 21]: 7.3 Weeks
- Half-Life Estimates [2, 22]: 174 h
- Weeks of Delay (7.5 X half-life) [2, 22]: 7.8 Weeks
- Half-Life Estimates [2, 23]: 184 h
- Weeks of Delay (7.5 X half-life) [2, 23]: 8.2 Weeks
- Half-Life Estimates [2, 24]: 194 h
- Weeks of Delay (7.5 X half-life) [2, 24]: 8.7 Weeks
- Half-Life Estimates [2, 25]: 116 h
- Weeks of Delay (7.5 X half-life) [2, 25]: 5.2 Weeks
- Weeks of Delay (21 day equivalency to Normal, 66 hr half-life) [2, 25]: 5.3 Weeks
- Half-Life Estimates [2, 26]: 126 h
- Weeks of Delay (7.5 X half-life) [2, 26]: 5.6 Weeks
- Weeks of Delay (21 day equivalency to Normal, 66 hr half-life) [2, 26]: 5.7 Weeks
- Half-Life Estimates [2, 27]: 136 h
- Weeks of Delay (7.5 X half-life) [2, 27]: 6.1 Weeks
- Weeks of Delay (21 day equivalency to Normal, 66 hr half-life) [2, 27]: 6.2 Weeks
- Half-Life Estimates [2, 28]: 147 h
- Weeks of Delay (7.5 X half-life) [2, 28]: 6.5 Weeks
- Weeks of Delay (21 day equivalency to Normal, 66 hr half-life) [2, 28]: 6.7 Weeks
- Half-Life Estimates [2, 29]: 157 h
- Weeks of Delay (7.5 X half-life) [2, 29]: 7.0 Weeks
- Weeks of Delay (21 day equivalency to Normal, 66 hr half-life) [2, 29]: 7.1 Weeks
- Half-Life Estimates [2, 30]: 167 h
- Weeks of Delay (7.5 X half-life) [2, 30]: 7.5 Weeks
- Weeks of Delay (21 day equivalency to Normal, 66 hr half-life) [2, 30]: 7.6 Weeks
- Half-Life Estimates [2, 31]: 177 h
- Weeks of Delay (7.5 X half-life) [2, 31]: 7.9 Weeks
- Half-Life Estimates [2, 32]: 188 h
- Weeks of Delay (7.5 X half-life) [2, 32]: 8.4 Weeks
- Half-Life Estimates [2, 33]: 198 h
- Weeks of Delay (7.5 X half-life) [2, 33]: 8.8 Weeks
- Weeks of Delay (21 day equivalency to Normal, 66 hr half-life) [2, 33]: 9.0 Weeks
- Half-Life Estimates [2, 34]: 208 h
- Weeks of Delay (7.5 X half-life) [2, 34]: 9.3 Weeks
- Weeks of Delay (21 day equivalency to Normal, 66 hr half-life) [2, 34]: 9.5 Weeks
- Half-Life Estimates [2, 35]: 215 h
- Weeks of Delay (7.5 X half-life) [2, 35]: 9.6 Weeks
- Half-Life Estimates [2, 36]: 225 h
- Weeks of Delay (7.5 X half-life) [2, 36]: 10.0 Weeks
- Half-Life Estimates [2, 37]: 235 h
- Weeks of Delay (7.5 X half-life) [2, 37]: 10.5 Weeks
- Half-Life Estimates [2, 38]: 245 h
- Weeks of Delay (7.5 X half-life) [2, 38]: 11.0 Weeks
- Half-Life Estimates [2, 39]: 256 h
- Weeks of Delay (7.5 X half-life) [2, 39]: 11.4 Weeks
- Half-Life Estimates [2, 40]: 266 h
- Weeks of Delay (7.5 X half-life) [2, 40]: 11.9 Weeks
- Half-Life Estimates [2, 41]: 276 h
- Weeks of Delay (7.5 X half-life) [2, 41]: 12.3 Weeks
- Half-Life Estimates [2, 42]: 286 h
- Weeks of Delay (7.5 X half-life) [2, 42]: 12.8 Weeks
- Half-Life Estimates [2, 43]: 297 h
- Weeks of Delay (7.5 X half-life) [2, 43]: 13.2 Weeks
- Half-Life Estimates [2, 44]: 307 h
- Weeks of Delay (7.5 X half-life) [2, 44]: 13.7 Weeks
Compound: Cc1ccc(Sc2ccccc2N2CCNCC2)c(C)c1 [vortioxetine]
- time to achieve steady-state plasma concentrations [1]: ≤ 2 weeks
